Source: ChEMBL document CHEMBL1201862, “PubChem BioAssay data set” (2004)
Active and inactive are the calls of the source.

Columns and labels:
Caspase-6 = target: T1, Caspase-6 (Homo sapiens, UniProt P55212); assay: inhibition of CASP6 peptide cleavage – biochemical, VEID-R110 fluorescence, cherry-pick, dose response (AID 720632)
T1 sequence (P55212 whole entry): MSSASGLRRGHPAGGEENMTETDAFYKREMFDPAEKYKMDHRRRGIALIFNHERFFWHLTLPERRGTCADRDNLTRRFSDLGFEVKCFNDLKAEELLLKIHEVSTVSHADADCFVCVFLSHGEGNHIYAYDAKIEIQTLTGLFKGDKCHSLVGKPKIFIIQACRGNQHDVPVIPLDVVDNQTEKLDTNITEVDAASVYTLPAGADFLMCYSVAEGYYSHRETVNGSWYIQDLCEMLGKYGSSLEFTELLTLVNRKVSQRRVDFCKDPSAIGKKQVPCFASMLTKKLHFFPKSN

[1] = inhibition of ADAM10 peptide cleavage – biochemical, FRET peptide substrate, recombinant human ADAM10, selectivity assay for ADAM17 exosite inhibitor project, dose response (AID 743259);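 further: ADAM10 enzyme cleaving a FRET peptide substrate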
[2] = target: Disintegrin and metalloproteinase domain-containing protein 17 (Homo sapiens, UniProt P78536); assay: exosite inhibitors of ADAM17, dose response, biochemical (AID 743260)
[3] = target: T2, Oxysterols receptor LXR-beta (Homo sapiens, UniProt P55055); format: functional, cell-based;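 further: Cell-based luminescence dose-response assay of agonist activity at LXR, run as a confirmatory counterscreen to a daf-12 agonist screen; HEK293 cells with Gal4-LXR fusion and GAL4-driven luciferase reporter; agonist potency from rising luciferase signal of a Gal4-LXR reporter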
T2 sequence (P55055 whole entry): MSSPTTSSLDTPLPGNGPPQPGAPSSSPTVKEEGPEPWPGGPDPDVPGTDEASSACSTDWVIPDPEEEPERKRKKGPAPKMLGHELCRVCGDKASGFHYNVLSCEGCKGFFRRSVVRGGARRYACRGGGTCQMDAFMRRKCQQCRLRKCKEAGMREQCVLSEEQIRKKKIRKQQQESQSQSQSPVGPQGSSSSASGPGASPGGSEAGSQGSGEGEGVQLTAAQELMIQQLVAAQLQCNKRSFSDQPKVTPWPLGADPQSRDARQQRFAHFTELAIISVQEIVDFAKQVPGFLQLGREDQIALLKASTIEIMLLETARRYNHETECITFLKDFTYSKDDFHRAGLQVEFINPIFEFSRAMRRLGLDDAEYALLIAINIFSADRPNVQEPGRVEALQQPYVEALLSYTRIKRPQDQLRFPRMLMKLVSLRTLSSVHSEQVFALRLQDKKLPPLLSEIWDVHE

[4] = blockade of melanocortin 4 receptor signaling – cell-based, plate reader, cherry pick, counter-screen for LGR2 antagonist project, dose response (AID 743444); format: functional;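 further: transfected HEK 293 cells stimulated with alpha-MSH peptide; potency of inhibitors of the alpha-MSH evoked signal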
[5] = A549 cell cytotoxicity, dose response, cytotoxicity control, plate reader, cherry-pick, antagonist series (AID 743412); format: functional, cell-based
[6] = blockers of bursicon-stimulated LGR2 cAMP reporter – cell-based, HEK293, CRE-luciferase reporter, cherry pick, set 2, dose response (AID 743343); format: functional;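 further: transfected cells were stimulated with diluted bursicon conditioned medium after compound addition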
[7] = HGIII-sPLA2 enzyme inhibition potency – biochemical, QFRET, IC50, dose response (AID 743457);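 further: green fluorescence rise as the enzyme cleaves BODIPY PC-A2 in liposomes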
Streptokinase A = target: T3, Streptokinase A (Streptococcus pyogenes serotype M1, UniProt P10520); assay: viability-normalized secreted streptokinase activity reduction – plasminogen activation absorbance, OD405, dose response (AID 1914); format: functional, Streptococcus pyogenes M1 GAS;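 further: secreted streptokinase activity via plasminogen activation per viability signal from cell pellet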
T3 sequence (P10520 whole entry): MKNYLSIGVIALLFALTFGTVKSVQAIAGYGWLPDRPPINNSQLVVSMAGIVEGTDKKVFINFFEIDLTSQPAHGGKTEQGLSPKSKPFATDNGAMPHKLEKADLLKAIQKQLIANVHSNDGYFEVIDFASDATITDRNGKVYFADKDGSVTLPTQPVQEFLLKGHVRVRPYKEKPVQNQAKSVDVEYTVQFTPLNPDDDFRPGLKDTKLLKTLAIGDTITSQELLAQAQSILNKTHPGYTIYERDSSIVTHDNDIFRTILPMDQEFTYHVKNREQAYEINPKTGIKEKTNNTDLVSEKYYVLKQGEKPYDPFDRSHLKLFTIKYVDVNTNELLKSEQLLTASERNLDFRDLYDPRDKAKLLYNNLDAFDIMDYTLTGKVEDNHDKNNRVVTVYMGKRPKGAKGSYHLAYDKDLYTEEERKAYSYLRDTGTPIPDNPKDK

Streptococcus = assay: GAS UMAA2166 growth inhibition – luminescence, BacTiterGlo, counter-screen for streptokinase expression inhibitor project, dose response (AID 1915); format: functional, organism-based;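 further: potency for reduction of bacterial viability or growth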
[8] = system: Streptococcus sp. 'group A'; assay: Streptococcus pyogenes SK(-)GAS viability under kanamycin – luminescence, BacTiterGlo, confirmation, counter-screen for streptokinase expression inhibitor project, dose response (AID 1900); format: functional, organism-based

Chain of Disintegrin and metalloproteinase domain-containing protein 17 (P78536 whole entry, the tested form may be a part): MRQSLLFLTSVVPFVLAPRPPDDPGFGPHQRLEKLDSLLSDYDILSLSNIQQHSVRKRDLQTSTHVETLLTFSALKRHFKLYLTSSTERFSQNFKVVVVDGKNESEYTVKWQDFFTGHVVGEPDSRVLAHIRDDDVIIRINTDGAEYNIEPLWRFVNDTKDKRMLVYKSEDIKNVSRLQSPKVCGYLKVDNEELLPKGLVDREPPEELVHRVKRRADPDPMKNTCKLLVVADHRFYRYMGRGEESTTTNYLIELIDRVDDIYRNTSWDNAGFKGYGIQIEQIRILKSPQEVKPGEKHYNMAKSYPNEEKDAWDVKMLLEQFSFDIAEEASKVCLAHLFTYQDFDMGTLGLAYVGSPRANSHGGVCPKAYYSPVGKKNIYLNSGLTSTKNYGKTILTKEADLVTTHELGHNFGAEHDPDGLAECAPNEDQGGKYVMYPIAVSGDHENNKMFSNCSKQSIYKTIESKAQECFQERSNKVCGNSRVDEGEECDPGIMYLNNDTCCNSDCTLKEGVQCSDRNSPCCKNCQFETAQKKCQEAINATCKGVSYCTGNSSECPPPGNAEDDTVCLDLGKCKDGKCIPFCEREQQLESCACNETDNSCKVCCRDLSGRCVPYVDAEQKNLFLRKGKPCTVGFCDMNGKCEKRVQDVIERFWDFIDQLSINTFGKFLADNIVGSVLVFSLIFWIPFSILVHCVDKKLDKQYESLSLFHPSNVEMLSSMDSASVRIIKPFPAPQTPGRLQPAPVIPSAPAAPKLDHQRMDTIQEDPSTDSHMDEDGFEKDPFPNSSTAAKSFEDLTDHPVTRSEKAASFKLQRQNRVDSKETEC

Which AC50 (Caspase-6) does the source give for `COc1cc(-c2noc(C)c2/C=C/c2ccc(C(=O)O)cc2)cc(OC)c1OC` here?
Its AC50 is 23.2 µM (active).

For `Cc1nc2ccc(S(=O)(=O)NCC(=O)NCc3ccc4c(c3)OCO4)cc2s1`, which IC50 [1] is on record?
The IC50 was > 69.5 µM (inactive).

And the IC50 [2]?
The IC50 was > 69.5 µM (inactive).

For `Nc1c(Br)cc2oc(-c3ccccc3)nc2c1Br`, which EC50 (cells) is on record?
Its EC50 is > 67.5 µM (inactive).

And the EC50 [3]?
The EC50 was > 67.5 µM (inactive).

Which results are given for `O=C(CN1C(=O)c2ccccc2S1(=O)=O)Nc1cc(S(=O)(=O)N2CCCCC2)ccc1Cl`?
IC50 [1]: > 69.5 µM (inactive); IC50 [2]: > 69.5 µM (inactive)

Which IC50 [1] does the source give for `CC(C)(C)[S+]([O-])N1Cc2cc(C(=O)NCC(F)(F)F)nc(-c3cccc(-c4cccc(F)c4)c3)c2[C@H]1CCO` (some centres not stated) here?
The IC50 was > 7.72 µM (active).

What about the IC50 [2] of the same compound?
Its IC50 is > 69.5 µM (inactive).

Which results are given for `Cc1ccccc1-c1ccc([C@H]2[C@@H](CO)N3CCCCN(S(=O)(=O)c4ccc(F)cc4)C[C@@H]23)cc1`?
AC50 [4]: 8.3 µM (active); AC50 [5]: 19.8 µM (active); AC50 [6]: 9.92 µM (active)

For `NNC(=O)/C(=N/Nc1ccccc1)S(=O)(=O)c1ccc(Cl)cc1`, which IC50 [7] is on record?
Its IC50 is 47.3 µM (inactive).

And the EC50 (Streptokinase A)?
The EC50 was > 150 µM (not active).

And the EC50 (Streptococcus)?
Its EC50 is > 150 µM (not active).

What about the EC50 [8] of the same compound?
The EC50 was 6.91 µM (active).

Which AC50 (Caspase-6) does the source give for `CCc1nnc(N/N=C/c2cc(C)c(C)cc2C)n1N` here?
Its AC50 is 39.8 µM (active).
